# Measured values published in patent US6610683B2, “Treatment of infectious disease using interleukin-1β-converting enzyme (ICE)/CED-3 family inhibitors” (IDUN Pharmaceuticals, Inc., priority 1996, dated 2003).
# Residues, ends and D or L forms follow the SMILES beside them. *: point of attachment. Cbz = O=C(OCc1ccccc1)*; CH2F = FC*
# What was measured:
# motoneurons = conditions: in vitro and in vivo; cited from earlier work
# granulocytes [1] = test: Granulocyte survival in culture, hypodiploid nuclei by propidium iodide flow cytometry; format: cell-based; conditions: at 48 hours; FIG. 6
# Procedure: Whole blood anticoagulated with Acid Citrate Dextrose (ACD) with a ratio of 1:5 ACD to blood was collected (˜100 ml).
# Using polypropylene plastic ware, neutrophils are isolated as follows:
# 30 ml of the whole blood is added to 50 ml polypropylene centrifuge tubes containing 15 ml of 6% Dextran (in Saline). The blood is allowed to sediment for approximately 1 hour at room temperature.
# The turbid straw colored layer harvested from the top of the cylinders into 50 ml conical polypropylene tubes. The blood cells were pelleted by centrifugation at 240×g (Sorvall centrifuge at 1200 rpm) for 12 min. at 4° C. with the brake on low. […]
# The supernatant was aspirated and the neutrophil pellet resuspended in 4.0 ml cold PBS (w/o Ca, Mg) on ice. 10 μl of the neutrophil cell suspension was diluted with 990 μl of Trypan blue (1:100) and cells counted using a hemacytometer. The cell number and viability were determined. […]
# Neutrophils were resuspended in hypotonic fluorochrome solution at a density of 5×10^6 cells/ml. Propidium iodide fluorescence of individual nuclei was evaluated in FL2 and measured on a logarithmic scale while gating on physical parameters in forward and side scatter to exlude cell debris.
# At least 10,000 events per sample were collected and the results were evaluated relative to a non-apoptotic neutrophil population. […]
# granulocytes [2] = test: Respiratory burst in isolated neutrophils measured by chemiluminescence (opsonized zymosan); format: cell-based; conditions: FIG. 7
# Procedure: Respiratory burst in isolated neutrophils measured by Chemiluminescence
# Whole blood anticoagulated with Acid Citrate Dextrose (ACD) with a ratio of 1:5 ACD to blood was collected (150 ml).
# Neutrophils were isolated as described above.
# Opsonized zymosan was prepared by suspending 125 mg zymosan particles in 25 ml pooled human serum (5 mg/ml) and incubating them for 20 minutes at 37° C. Centrifuge the suspension and resuspend the particles in 7 ml of PBS (18 mg/ml) and stored on ice until use (vortex prior to pipetting).
# 50 ml of a 250 μM solution of Lucigenin (MW 510.5) was prepared by dissolving 6.4 mg of the solid in 50 ml of PBS-G (+Ca, Mg). 10 μl of PBS-G (+Ca, Mg) to the wells in a white 96 well plate.
# 50 μl of the 250 μM Lucigenin solution was added to the wells in a white 96 well plate.
# Cell preparations were obatined from cell culture (concentration at time zero=5.0×10^6 cells/ml) with PBS-G (+Ca, Mg). 20 μl of the neutrophil suspension was suspended to the appropriate wells and the plate was incubated the plate at 37° C. for three minutes. 10 μl of the opsonized zymosan was added to the wells.
# The plate was read on the luminometer (Labsystems Luminoskan, Needham Heights, Mass.) for 14 min. at 37° C. in the kinetic mode and record results using the software DeltaSoft.
# The ability to undergo the respiratory burst is another measure of granulocyte viability. The respiratory burst is a physiological response of granulocytes to foreign stimuli such as bacteria. In this example, the method for inducing the respiratory burst utilized opsonized bacterial zymosan. The respiratory burst was measured via chemiluminescence.
# [3] = test system: granulocytes in whole blood; test: Whole blood assay: survival of granulocytes by hypodiploid analysis via flow cytometry; format: cell-based; conditions: time zero
# Procedure: The following reagents were used:
# anti-CD32-FITC monoclonal antibody obtained from Pharmingen.
# 25 Lysing Solution (10×Stock: 89.9 g NH4Cl;
# (DPBS without calcium or magnesium obtained from Irivine Scientific. 2% fetal bovine serum in DPBS stored at 4° C. 50 μg/ml propidium iodide in DPBS sterile filtered and stored at 4° C.)
# 200 μl blood sample/2.8 ml 1×lysis solution in a 15 ml polypropylene conical tube.
# Cap and invert to mix. Leave at room temperature for 3-5 minutes.
# Centrifuge in a table-top Sorvall at 1200 rpm for 5 minutes at 4° C.
# Aspirate supernate. Resuspend pellet in 200 μl/sample 2% FBS/DPBS. Add 20 μl/sample anti-CD32-FITC. Incubate 30 minutes on ice in the dark.
# Add 5 ml/sample DPBS. Centrifuge at 1000 rpm for 5 minutes at 4° C.
# Aspirate supernate. Resuspend pellet in1 ml/sample 2% FBS/DPBS.
# Add 3 ml/sample ice-cold 95% EtOH dropwise while vortexing gently.
# Incubate samples on ice in the dark for 30 minutes.
# Centrifuge at 1000 rpm for 5 minutes at 4° C.
# Resuspend each sample in 50 μl 5 mg/ml RN'ase. Transfer sample to 900 μl/sample […] Propidium Iodide in 12×75 mm Falcon polystyrene tubes.
# Incubate on ice for 30 minutes.
# Analyze samples by flow cytometry (argon laser) for forward and side scatter and fluorescence.
# Survival of granulocytes in whole blood was measured by hypodiploid analysis in a similar fashion to isolated granulocytes via flow cytometry. […]
# T-lymphocyte cell line = conditions: cited from earlier work
# mammary epithelial cells = conditions: absence of extracellular matrix; cited from earlier work
# ICE = target: T1, ICE (Homo sapiens, UniProt P29466); conditions: cited from earlier work
# T1 sequence (P29466 120-297 limits assumed): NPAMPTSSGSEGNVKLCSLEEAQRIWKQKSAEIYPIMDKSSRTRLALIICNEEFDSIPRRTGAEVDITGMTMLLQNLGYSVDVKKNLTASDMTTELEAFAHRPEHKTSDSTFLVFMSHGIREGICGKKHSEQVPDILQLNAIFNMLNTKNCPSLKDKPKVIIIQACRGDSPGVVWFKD
# T1 sequence (P29466 317-404 limits assumed): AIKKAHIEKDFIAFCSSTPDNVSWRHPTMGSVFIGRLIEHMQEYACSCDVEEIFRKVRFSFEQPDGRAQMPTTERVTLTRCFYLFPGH
# [4] = after granulocyte culture for 72 hours
smiles,measurement,setting,value
CC(=O)N[C@@H](Cc1ccc(O)cc1)C(=O)N[C@H](C(=O)N[C@@H](C)C(=O)N[C@@H](CC(=O)O)C(=O)CCl)C(C)C [acetyl-YVAD-chloromethylketone],block of the death of motoneurons,motoneurons,blocked
COC(=O)C[C@H](NC(=O)[C@H](C)NC(=O)[C@@H](NC(=O)OCc1ccccc1)C(C)C)C(=O)CF [zVADfmk] (Cbz-Val-Ala-Asp(OMe)-CH2F),effect on improving granulocyte survival,granulocytes [1],weak effect
same,maintenance of the respiratory burst,"granulocytes [2]; opsonized zymosan, chemiluminescence",did not maintain the respiratory burst
"Cc1c(C(=O)N[C@H](C(=O)NC(CC(=O)O)C(=O)CF)C(C)C)n(C)c2ccccc12 (stereo partly drawn) [Example 43, N-[(1,3-dimethylindole-2-carbonyl)Valinyl]-3-amino-4-Oxo-5-fluoropentanoic Acid]",maintenance of the respiratory burst,granulocytes [2]; [4],partially maintained
same,maintenance of the respiratory burst,granulocytes [2]; for 48 hours,substantially maintained
"Cc1c(C(=O)N[C@H](C(=O)NC(CC(=O)O)C(=O)COC(=O)c2c(Cl)cccc2Cl)C(C)C)n(C)c2ccccc12 (stereo partly drawn) [Example 70, N-[N-(1,3-dimethyl-indole-2-carbonyl)-valinyl]-3-amino-5-(2,6-dichlorobenzoyl)oxy-4-oxo-pentanoic Acid]",Percentage of diploid granulocytes in whole blood,[3],96%
same,maintenance of the respiratory burst,granulocytes [2]; [4],partially maintained
same,maintenance of the respiratory burst,granulocytes [2]; for 48 hours,substantially maintained
CC(=O)N[C@@H](CC(=O)O)C(=O)N[C@@H](CCC(=O)O)C(=O)N[C@H](C(=O)N[C@H](C=O)CC(=O)O)C(C)C [acetyl-DEVD-aldehyde],inhibition of anti-Fas induced apoptosis,T-lymphocyte cell line,inhibited
CC(C)(C)OC(=O)N[C@@H](CC(=O)OCc1ccccc1)C(=O)CCl [Boc-D-(benzyl) chloromethylketone],prevention of cell death of mammary epithelial cells,mammary epithelial cells,prevented
CC(=O)N[C@@H](Cc1ccc(O)cc1)C(=O)N[C@H](C(=O)N[C@@H](C)C(=O)N[C@H](C=O)CC(=O)O)C(C)C [acetyl-YVAD-aldehyde],block of the death of motoneurons,motoneurons,blocked
CC(=O)NC(Cc1ccc(O)cc1)C(=O)NC(C(=O)NC(C)C(=O)NC(CC(=O)O)C(=O)C=[N+]=[N-])C(C)C (stereo not drawn) [AC-Tyr-Val-Ala-Asp-COCHN2],inhibition of the enzyme (ICE),ICE,"potent, competitive, irreversible inhibitor"
